According to patent publication US5612329A (priority 1995, dated 1997):

Legend:
cancer cell lines = conditions: cited from earlier work
[1] = test system: prostatic carcinoma cells; conditions: cited from earlier work
polyamine transporter = conditions: vs longer polyamines such as spermine and spermidine; cited from earlier work
CCRF-CEN cells = assay: In vitro cytotoxicity / cell growth inhibition, leukemia; format: cell-based; conditions: Homo sapiens, 48 hr, read-out: log10 G150 (converted)
Experimental: (§1) The anti-proliferative activities of the aziridinylpolyamines obtained in Synthesis Examples 1-4 were assessed by determining log10 G150 values against human cancer cell lines using the screening strategy described by Boyd et al, Drug Devel. Res. 34:91-109 (1995).
(§2) More specifically, the compounds were tested at a minimum of five concentrations at 10-fold dilutions using a 48 hr continuous exposure protocol. Each cell line shown in Table 1 below was inoculated onto microtiter plates. After a pre-incubation period of 24-48 hr at 37° C., the test compounds were added, and the culture was incubated for an additional 48 hr at 37° C. Cell viability or cell growth end-point determinations were performed by fixation of the cells, followed by staining with sulforhodamine B (Monks et al, J. Natl. Cancer Inst., 83:757-766 (1991)).

K-562 cells = assay: as above; format: cell-based; conditions: Homo sapiens, K562; K-562, leukemia, 48 hr; read-out: log10 G150 (converted)
Experimental: as §1, §2

MOLT-4 cells = assay: as above; format: cell-based; conditions: Homo sapiens; MOLT-4, leukemia, 48 hr; read-out: log10 G150 (converted)
Experimental: as §1, §2

RPMI-8226 cells = assay: as above; format: cell-based; conditions: Homo sapiens; RPMI-8226, leukemia, 48 hr; read-out: log10 G150 (converted)
Experimental: as §1, §2

SR cells = assay: as above; format: cell-based; conditions: Homo sapiens, 48 hr, read-out: log10 G150 (converted)
Experimental: as §1, §2

HL-60 (TB) cells = assay: cells; format: cell-based; conditions: Homo sapiens, leukemia, 48 hr, read-out: log10 G150 (converted)
A549/ATCC cells = assay: In vitro cytotoxicity / cell growth inhibition, non-small cell lung cancer; format: cell-based; conditions: Homo sapiens, 48 hr, read-out: log10 G150 (converted)
Experimental: as §1, §2

EKVX cells = assay: as above; format: cell-based; conditions: Homo sapiens, 48 hr, read-out: log10 G150 (converted)
Experimental: as §1, §2

HOP-62 cells = assay: as above; format: cell-based; conditions: Homo sapiens; HOP-62, non-small cell lung cancer, 48 hr; read-out: log10 G150 (converted)
Experimental: as §1, §2

HOP-92 cells = assay: as above; format: cell-based; conditions: Homo sapiens; HOP-92, non-small cell lung cancer, 48 hr; read-out: log10 G150 (converted)
Experimental: as §1, §2

NCl-H226 cells = assay: as above; format: cell-based; conditions: Homo sapiens, 48 hr, read-out: log10 G150 (converted)
Experimental: as §1, §2

NCl-H23 cells = assay: as above; format: cell-based; conditions: Homo sapiens, 48 hr, read-out: log10 G150 (converted)
Experimental: as §1, §2

NCl-H322M cells = assay: as above; format: cell-based; conditions: Homo sapiens, 48 hr, read-out: log10 G150 (converted)
Experimental: as §1, §2

NCl-H460 cells = assay: as above; format: cell-based; conditions: Homo sapiens, 48 hr, read-out: log10 G150 (converted)
Experimental: as §1, §2

NCl-H522 cells = assay: as above; format: cell-based; conditions: Homo sapiens, 48 hr, read-out: log10 G150 (converted)
Experimental: as §1, §2

COLO 205 cells = assay: In vitro cytotoxicity / cell growth inhibition, colon cancer; format: cell-based; conditions: Homo sapiens; COLO 205, colon cancer, 48 hr; read-out: log10 G150 (converted)
Experimental: as §1, §2

HCC-2998 cells = assay: as above; format: cell-based; conditions: Homo sapiens; HCC-2998, colon cancer, 48 hr; read-out: log10 G150 (converted)
Experimental: as §1, §2

HCT-116 cells = assay: as above; format: cell-based; conditions: Homo sapiens; HCT-116, colon cancer, 48 hr; read-out: log10 G150 (converted)
Experimental: as §1, §2

HCT-15 cells = assay: as above; format: cell-based; conditions: Homo sapiens; HCT-15, colon cancer, 48 hr; read-out: log10 G150 (converted)
Experimental: as §1, §2

HT29 cells = assay: as above; format: cell-based; conditions: Homo sapiens, HT-29, 48 hr, read-out: log10 G150 (converted)
Experimental: as §1, §2

KM12 cells = assay: as above; format: cell-based; conditions: Homo sapiens, 48 hr, read-out: log10 G150 (converted)
Experimental: as §1, §2

SW-620 cells = assay: as above; format: cell-based; conditions: Homo sapiens; SW-620, colon cancer, 48 hr; read-out: log10 G150 (converted)
Experimental: as §1, §2

SF-268 cells = assay: In vitro cytotoxicity / cell growth inhibition, CNS cancer; format: cell-based; conditions: Homo sapiens; SF-268, CNS cancer, 48 hr; read-out: log10 G150 (converted)
Experimental: as §1, §2

SF-295 cells = assay: as above; format: cell-based; conditions: Homo sapiens; SF-295, CNS cancer, 48 hr; read-out: log10 G150 (converted)
Experimental: as §1, §2

SF-539 cells = assay: as above; format: cell-based; conditions: Homo sapiens; SF-539, CNS cancer, 48 hr; read-out: log10 G150 (converted)
Experimental: as §1, §2

SNB-19 cells = assay: as above; format: cell-based; conditions: Homo sapiens; SNB-19, CNS cancer, 48 hr; read-out: log10 G150 (converted)
Experimental: as §1, §2

SNB-75 cells = assay: as above; format: cell-based; conditions: Homo sapiens; SNB-75, CNS cancer, 48 hr; read-out: log10 G150 (converted)
Experimental: as §1, §2

U251 cells = assay: as above; format: cell-based; conditions: Homo sapiens, U-251, 48 hr, read-out: log10 G150 (converted)
Experimental: as §1, §2

786-0 cells = assay: In vitro cytotoxicity / cell growth inhibition, renal cancer; format: cell-based; conditions: Homo sapiens; 786-0, renal cancer, 48 hr; read-out: log10 G150 (converted)
Experimental: as §1, §2

A498 cells = assay: as above; format: cell-based; conditions: Homo sapiens, 48 hr, read-out: log10 G150 (converted)
Experimental: as §1, §2

ACHN cells = assay: as above; format: cell-based; conditions: Homo sapiens, 48 hr, read-out: log10 G150 (converted)
Experimental: as §1, §2

CAKI-1 cells = assay: as above; format: cell-based; conditions: Homo sapiens; CAKI-1, renal cancer, 48 hr; read-out: log10 G150 (converted)
Experimental: as §1, §2

RXF-393 cells = assay: as above; format: cell-based; conditions: Homo sapiens; RXF-393, renal cancer, 48 hr; read-out: log10 G150 (converted)
Experimental: as §1, §2

SN12C cells = assay: as above; format: cell-based; conditions: Homo sapiens, 48 hr, read-out: log10 G150 (converted)
Experimental: as §1, §2

TK-10 cells = assay: as above; format: cell-based; conditions: Homo sapiens; TK-10, renal cancer, 48 hr; read-out: log10 G150 (converted)
Experimental: as §1, §2

UO-31 cells = assay: as above; format: cell-based; conditions: Homo sapiens; UO-31, renal cancer, 48 hr; read-out: log10 G150 (converted)
Experimental: as §1, §2

DNA = conditions: compared with chlorambucil per se; cited from earlier work
[2] = relative to level predicted from in vitro studies; cited from earlier work
cells = conditions: suggested by the biological activity profile; cited from earlier work

Structure (SMILES)	GI50 (CCRF-CEN cells)	GI50 (K-562 cells)	GI50 (MOLT-4 cells)	GI50 (RPMI-8226 cells)	GI50 (SR cells)	GI50 (HL-60 (TB) cells)	GI50 (A549/ATCC cells)	GI50 (EKVX cells)	GI50 (HOP-62 cells)	GI50 (HOP-92 cells)	GI50 (NCl-H226 cells)	GI50 (NCl-H23 cells)	GI50 (NCl-H322M cells)	GI50 (NCl-H460 cells)	GI50 (NCl-H522 cells)	GI50 (COLO 205 cells)	GI50 (HCC-2998 cells)	GI50 (HCT-116 cells)	GI50 (HCT-15 cells)	GI50 (HT29 cells)	further results
NCCCCNCCCN1CC1 [N-(3-aziridinylpropyl)-1,4-diaminobutane]	–	–	–	–	–	–	–	–	–	–	–	–	–	–	–	–	–	–	–	–	cytotoxicity against a variety of cancer cell lines (cancer cell lines): cytotoxic against a variety of cancer cell lines in submicromolar concentrations
NCCCCN1CC1 [N-(4-aminobutyl)aziridine]	–	–	–	–	–	–	–	–	–	–	–	–	–	–	–	–	–	–	–	–	cytotoxicity against prostatic carcinoma cells [1]: cytotoxic against prostatic carcinoma cells; effectiveness as substrate for the polyamine transporter (polyamine transporter): less effective as a substrate for the polyamine transporter than the longer polyamines
NCCCNCCCCN1CC1 [N-(4-aziridinylbutyl)-1,3-diaminopropane]	–	–	–	–	–	–	–	–	–	–	–	–	–	–	–	–	–	–	–	–	cytotoxicity against a variety of cancer cell lines (cancer cell lines): cytotoxic against a variety of cancer cell lines in submicromolar concentrations
C(CNCCCN1CC1)CNCCCN1CC1 [Synthesis Example 2, 1,11-Diaziridinyl-4,8-diazaundecane]	3.72 µM	19.5 µM	3.09 µM	22.4 µM	3.09 µM	2.69 µM	13.2 µM	25.1 µM	6.31 µM	11.2 µM	18.6 µM	10.7 µM	36.3 µM	2.95 µM	11.2 µM	13.2 µM	20.4 µM	19.5 µM	21.9 µM	18.6 µM	GI50 (KM12 cells): 19.5 µM; GI50 (SW-620 cells): 26.3 µM; GI50 (SF-268 cells): 10.7 µM; GI50 (SF-295 cells): 14.5 µM; GI50 (SF-539 cells): 11.2 µM; GI50 (SNB-19 cells): 18.2 µM; GI50 (SNB-75 cells): 3.98 µM; GI50 (U251 cells): 6.92 µM; GI50 (786-0 cells): 3.39 µM; GI50 (A498 cells): 28.2 µM; GI50 (ACHN cells): 3.89 µM; GI50 (CAKI-1 cells): 4.07 µM; GI50 (RXF-393 cells): 3.89 µM; GI50 (SN12C cells): 6.76 µM; GI50 (TK-10 cells): 14.5 µM; GI50 (UO-31 cells): 17 µM
CC(CCNCCCCNCCC(C)N1CC1)N1CC1 (stereo not shown) [Synthesis Example 3, 2,13-Diaziridinyl-5,10-diazatetradecane]	4.79 µM	21.4 µM	3.24 µM	27.5 µM	3.63 µM	3.31 µM	29.5 µM	30.9 µM	30.9 µM	19.1 µM	23.4 µM	13.2 µM	63.1 µM	6.17 µM	12.6 µM	14.8 µM	55 µM	26.3 µM	41.7 µM	20 µM	GI50 (KM12 cells): 81.3 µM; GI50 (SW-620 cells): 22.4 µM; GI50 (SF-268 cells): 14.5 µM; GI50 (SF-295 cells): 24 µM; GI50 (SF-539 cells): 6.31 µM; GI50 (SNB-19 cells): 26.3 µM; GI50 (SNB-75 cells): 3.39 µM; GI50 (U251 cells): 15.8 µM; GI50 (786-0 cells): 3.8 µM; GI50 (A498 cells): 69.2 µM; GI50 (ACHN cells): 5.75 µM; GI50 (CAKI-1 cells): 5.01 µM; GI50 (RXF-393 cells): 15.1 µM; GI50 (SN12C cells): 9.55 µM; GI50 (TK-10 cells): > 100 µM; GI50 (UO-31 cells): 35.5 µM
CC1CN1CCCNCCCCNCCCN1CC1C (stereo not shown) [Synthesis Example 4, 1,12-Di-(2-methyl-1-aziridinyl)-4,9-diazadodecane]	3.98 µM	29.5 µM	2.95 µM	31.6 µM	4.9 µM	2.95 µM	18.2 µM	32.4 µM	10.7 µM	14.5 µM	19.1 µM	8.71 µM	91.2 µM	9.12 µM	7.24 µM	10 µM	19.1 µM	20.9 µM	> 100 µM	20.4 µM	GI50 (KM12 cells): 64.6 µM; GI50 (SW-620 cells): 41.7 µM; GI50 (SF-268 cells): 20.4 µM; GI50 (SF-295 cells): 47.9 µM; GI50 (SF-539 cells): 12.9 µM; GI50 (SNB-19 cells): 25.7 µM; GI50 (SNB-75 cells): 2.34 µM; GI50 (U251 cells): 13.2 µM; GI50 (786-0 cells): 4.47 µM; GI50 (A498 cells): > 100 µM; GI50 (ACHN cells): 19.1 µM; GI50 (CAKI-1 cells): 3.47 µM; GI50 (RXF-393 cells): 11 µM; GI50 (SN12C cells): 9.77 µM; GI50 (TK-10 cells): 11.7 µM; GI50 (UO-31 cells): 17.4 µM
NCCCCN(CCCN)CCCNC(=O)CCCc1ccc(N(CCCl)CCCl)cc1 [chlorambucil-spermidine conjugate]	–	–	–	–	–	–	–	–	–	–	–	–	–	–	–	–	–	–	–	–	production of DNA cross-links (DNA): highly efficient at producing DNA cross-links compared with chlorambucil per se; in vivo potency [2]: in vivo potency does not reach the level predicted from in vitro studies; uptake by cells (cells): not taken up well by cells
